Test results: ChEMBL document CHEMBL1201862, “PubChem BioAssay data set” (2004)
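48-hour exposure; five concentrations; linearly interpolated endpoints. GI50 marks 50% less growth.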 The source made the active and inactive calls. Cut-off read from the data, not from the text of the source: active = GI50 up to about 1.1 µM and inactive = higher.

Key:
Assay in all cases: NCI tumour cell line growth inhibition, 48 h
A549 = system: A549
COLO 205 = system: COLO 205
EKVX = system: EKVX
HCC 2998 = system: HCC 2998
HOP-62 = system: HOP-62
HT-29 = system: HT-29
K562 = system: K562
KM12 = system: KM12
M14 = system: M14
OVCAR-4 = system: OVCAR-4
OVCAR-5 = system: OVCAR-5
OVCAR-8 = system: OVCAR-8
SF-295 = system: SF-295
SK-MEL-5 = system: SK-MEL-5
SW-620 = system: SW-620
UACC-257 = system: UACC-257
SK-MEL-2 = system: SK-MEL-2

Measured: GI50

CC1=Nc2ccccc2SC(c2c(Cl)cccc2Cl)C1 (centres undefined)
inactive: A549 1.88 µM | COLO 205 1.58 µM | EKVX 2.12 µM | HCC 2998 1.6 µM | HOP-62 2.15 µM | M14 1.52 µM | OVCAR-4 1.98 µM | OVCAR-5 2.39 µM | SF-295 1.34 µM | SK-MEL-5 1.49 µM | UACC-257 1.57 µM
active: HT-29 0.397 µM | K562 0.327 µM | KM12 0.828 µM | OVCAR-8 0.229 µM | SW-620 0.43 µM

CC(C)N(C(=O)C12CC3CC(CC(C3)C1)C2)C(C)C
inactive: A549 > 50 µM | COLO 205 > 50 µM | EKVX > 50 µM | HCC 2998 > 50 µM | HOP-62 > 50 µM | HT-29 > 50 µM | K562 > 50 µM | KM12 > 50 µM | M14 > 50 µM | OVCAR-4 > 50 µM | OVCAR-5 > 50 µM | OVCAR-8 > 50 µM | SF-295 > 50 µM | SK-MEL-2 > 50 µM | SK-MEL-5 > 50 µM | SW-620 > 50 µM | UACC-257 > 50 µM

CC(=O)Oc1cc(OC(C)=O)c(OC(C)=O)c2c1CC1C(=O)C3(CCc4ccccc43)C(=O)C1C2 (centres undefined)
inactive: A549 19.5 µM | COLO 205 19.6 µM | EKVX 20 µM | HCC 2998 6.7 µM | HOP-62 21.1 µM | HT-29 20.7 µM | K562 9.2 µM | M14 > 100 µM | OVCAR-4 11.7 µM | OVCAR-8 14.2 µM | SF-295 4.61 µM | SW-620 17.9 µM

Cc1ccc(CC(C)N)cc1 (centres undefined)
inactive: A549 > 100 µM | COLO 205 > 100 µM | EKVX > 100 µM | HCC 2998 > 100 µM | HOP-62 > 100 µM | HT-29 > 100 µM | K562 > 100 µM | KM12 > 100 µM | M14 > 100 µM | OVCAR-4 > 100 µM | OVCAR-5 > 100 µM | OVCAR-8 > 100 µM | SF-295 > 100 µM | SK-MEL-2 > 100 µM | SK-MEL-5 > 100 µM | SW-620 > 100 µM | UACC-257 > 100 µM

CN(Cc1ccccc1)C1(N(C)Cc2ccccc2)CC1
inactive: A549 > 100 µM | COLO 205 > 100 µM | EKVX > 100 µM | HCC 2998 > 100 µM | HOP-62 > 100 µM | HT-29 > 100 µM | K562 > 100 µM | KM12 > 100 µM | M14 > 100 µM | OVCAR-4 > 100 µM | OVCAR-5 > 100 µM | OVCAR-8 > 100 µM | SF-295 > 100 µM | SK-MEL-2 > 100 µM | SK-MEL-5 > 100 µM | SW-620 > 100 µM | UACC-257 > 100 µM

C/C(=C(/C)c1cc[n+](C)cc1)c1cc[n+](C)cc1
inactive: A549 > 75 µM | COLO 205 27.2 µM | EKVX > 75 µM | HOP-62 > 75 µM | HT-29 > 75 µM | K562 54.8 µM | KM12 > 75 µM | M14 > 75 µM | OVCAR-4 69.8 µM | OVCAR-5 > 75 µM | OVCAR-8 > 75 µM | SF-295 > 75 µM | SK-MEL-2 > 75 µM | SK-MEL-5 > 75 µM | UACC-257 > 75 µM
